Publication PMC2885805 (Pesticide biochemistry and physiology, 2010)

What was measured:
cockroach GABA receptor = assay: whole-cell patch clamp, GABA-induced chloride current; assay type: cell-based, Periplaneta americana; conditions: resting receptor; holding potential −60 mV, symmetric chloride; cited from earlier work
rat GABAA receptor = assay: as above; assay type: cell-based; conditions: closed channel; rat dorsal root ganglion neurons; cited from earlier work
[1] = test system: desensitizing GluCl (cockroach neurons); assay: whole-cell patch clamp, glutamate-induced chloride current; assay type: cell-based, Periplaneta americana; conditions: peak current measured; cited from earlier work
[2] = test system: non-desensitizing GluCl (cockroach neurons); assay: as above; assay type: cell-based, Periplaneta americana; conditions: cited from earlier work
[3] = test system: desensitizing GluCl (cockroach neurons); assay: as above; assay type: cell-based, Periplaneta americana; conditions: 30 μM picrotoxinin; desensitizing component

N#Cc1nn(-c2c(Cl)cc(C(F)(F)F)cc2Cl)c(N)c1[S+]([O-])C(F)(F)F (stereo not drawn) [fipronil]
IC50 (cockroach GABA receptor): 28 nM
IC50 (rat GABAA receptor): 1660 nM
IC50 [1]: 801 ± 207 nM
IC50 ([2]; steady-state current measured, use-dependent open-channel block): 10 ± 0.9 nM

C=C(C)[C@@H]1[C@H]2OC(=O)[C@@H]1[C@]1(O)C[C@H]3O[C@]34C(=O)O[C@H]2[C@]14C [picrotoxinin]
% inhibition at 30 μM [3]: 8.2 ± 2.9%
IC50 ([2]; non-desensitizing component): 4100 ± 1000 nM
